Where two headings read alike, the source gives them in different places.
How the values were obtained:
[1] = Spectrophotometric methylene blue H2S release in phosphate buffer with or without thiols; conditions: 37 °C, with or without L-cysteine or glutathione
[2] = compound 150 µM, rat liver homogenate, 37 °C; cited from earlier work
HCT-116 = test: MTT antiproliferative assay, HCT-116 (normoxia and CoCl2-induced hypoxia); format: cell-based, human; conditions: HCT-116; for IC50: Homo sapiens, MTT, 72 h
Description: (§1) These cell lines were cultured as monolayers in Dulbecco’s Modified Eagle’s Medium (DMEM) supplemented with 10% FBS, 2 mM l-glutamine, 100 U/mL penicillin, and 100 µg/mL streptomycin sulfate. […] The cells were sub-cultured using trypsin/EDTA solution, counted with a hemocytometer, and plated on 96-well plates (5000 cells/well), allowing them to form a semi-confluent monolayer overnight. […] DMSO (100 µL/well) was then added to dissolve the formazan crystals with shaking for 10 min, after which the absorb absorbance was read at 590 nm against no-cell blanks using a FLuo Star Optima microplate reader (BMG technologies, Ortenberg, Germany). Cell proliferation was calculated by comparing the OD values of the DMSO control wells with those of the samples, represented as % proliferation relative to the control.

hCA IX [3] = conditions: stopped-flow CO2 hydrase assay, mean of three assays; cited from earlier work
hCA IV [4] = test: Stopped-flow CO2 hydrase inhibition assay, hCA IV; format: biochemical, human; conditions: ratio of KIs
Description: (§2) An Applied Photophysics stopped-flow instrument (Applied Photophysics Ltd, Leatherhead, UK) was used for assaying the CA-catalyzed CO2 hydration activity. Phenol red (at a concentration of 0.2 mM) was used as an indicator, working at the absorbance maximum of 557 nm, with 20 mM Hepes (pH 7.5) as a buffer and 20 mM Na2SO4 for maintaining constant the ionic strength, following the initial rates of the CA-catalyzed CO2 hydration reaction for a period of 10−100 s. The CO2 concentrations ranged from 1.7 to 17 mM for the determination of the kinetic parameters and inhibition constants. For each inhibitor, at least six traces of the initial 5−10% of the reaction were used for determining the initial velocity. The uncatalyzed rates were determined in the same manner and subtracted from the total observed rates. Stock solutions of inhibitor (0.1 mM) were prepared in distilled−deionized water and dilutions up to 0.01 nM were made thereafter with the assay buffer. Inhibitor and enzyme solutions were preincubated together for 15 min at room temperature before the assay to allow for the formation of the E−I complex. The inhibition constants were obtained by nonlinear least-squares methods using Prism 7 (GraphPad Software, La Jolla, CA, USA) and the Cheng−Prusoff equation and represent the mean of at least three different determinations. The enzyme concentrations were in the range of 3–11 nM. All hCA isoforms were recombinant ones obtained in-house.

A549 = test: MTT antiproliferative assay, A549; format: cell-based; conditions: Homo sapiens, normoxic conditions, 72 h
Description: The human triple-negative breast cancer cell line (MDA-MB-231), colon cancer cell line (HCT-116), and lung cancer cell line (A549) used in this study were obtained from the American Type Culture Collection (ATCC). These cell lines were cultured as monolayers in Dulbecco’s Modified Eagle’s Medium (DMEM) supplemented with 10% FBS, 2 mM l-glutamine, 100 U/mL penicillin, and 100 µg/mL streptomycin sulfate. […] The cells were sub-cultured using trypsin/EDTA solution, counted with a hemocytometer, and plated on 96-well plates (5000 cells/well), allowing them to form a semi-confluent monolayer overnight. […]. DMSO (100 µL/well) was then added to dissolve the formazan crystals with shaking for 10 min, after which the absorb absorbance was read at 590 nm against no-cell blanks using a FLuo Star Optima microplate reader (BMG technologies, Ortenberg, Germany). Cell proliferation was calculated by comparing the OD values of the DMSO control wells with those of the samples, represented as % proliferation relative to the control.

hCA I = conditions: stopped-flow CO2 hydrase assay, mean of three assays; cited from earlier work
hCA XII [5] = test: Stopped-flow CO2 hydrase inhibition assay, hCA XII; format: biochemical, human; conditions: ratio of KIs
Description: as §2

hCA IX [6] = test: Stopped-flow CO2 hydrase inhibition assay, hCA IX; format: biochemical, human; conditions: ratio of KIs
Description: as §2

MDA-MB-231 = test: MTT antiproliferative assay, MDA-MB-231; format: cell-based; conditions: Homo sapiens, normoxic conditions, 72 h
Description: as §1

hCA XII [7] = conditions: stopped-flow CO2 hydrase assay, mean of three assays; cited from earlier work
hCA II = conditions: stopped-flow CO2 hydrase assay, mean of three assays; cited from earlier work
hCA IV [8] = conditions: stopped-flow CO2 hydrase assay, mean of three assays; cited from earlier work
[9] = chemically induced hypoxia with CoCl2·6H2O, read-out: IC50 HCT-116 (Hypoxia)
[10] = normoxic conditions, read-out: IC50 HCT-116 (Normoxia)

O=C(O)c1ccc(-c2cssc2=S)cc1 [Compound 3]
H2S release in phosphate buffer [1]: minimal H2S release
H2S release half-life t/2 [2]: 3.1 min
Time of peak H2S release [2]: 20 min

NS(=O)(=O)c1ccc(CCN(Cc2ccc(Br)cc2)C(=O)c2ccc(-c3cssc3=S)cc2)cc1 [Compound 22]
IC50 Normoxia / IC50 Hypoxia (HCT-116): 0.6
IC50 (HCT-116; [9]): 11.4 ± 0.22 µM
IC50 (HCT-116; [10]): 6.62 ± 0.21 µM
Ki (hCA IX [3]): 0.0191 µM
hCA II/hCA IV selectivity ratio (hCA IV [4]): 104
IC50 (A549): 23.7 ± 1.61 µM
Ki (hCA I): 7.7 µM
hCA II/hCA XII selectivity ratio (hCA XII [5]): 284
hCA II/hCA IX selectivity ratio (hCA IX [6]): 192
IC50 (MDA-MB-231): 6.31 ± 0.22 µM
Ki (hCA XII [7]): 0.0129 µM
Ki (hCA II): 3.66 µM

CSc1ccc(CN(CCc2ccc(S(N)(=O)=O)cc2)C(=O)c2ccc(-c3cssc3=S)cc2)cc1 [Compound 29]
IC50 Normoxia / IC50 Hypoxia (HCT-116): 0.8
IC50 (HCT-116; [9]): 12.7 ± 0.25 µM
IC50 (HCT-116; [10]): 10.1 ± 0.66 µM
Ki (hCA IX [3]): 0.0462 µM
hCA II/hCA IV selectivity ratio (hCA IV [4]): 29.3
IC50 (A549): 60.9 ± 2.17 µM
Ki (hCA I): 7.21 µM
hCA II/hCA XII selectivity ratio (hCA XII [5]): 1148
hCA II/hCA IX selectivity ratio (hCA IX [6]): 209
H2S release half-life t/2 [2]: 4.6 min
Ki (hCA IV [8]): 0.404 µM
IC50 (MDA-MB-231): 3.25 ± 0.09 µM
Ki (hCA XII [7]): 0.0084 µM
Ki (hCA II): 9.65 µM

From paper PMC11432087, “Hydrogen Sulfide-Releasing Carbonic Anhydrase Inhibitors Effectively Suppress Cancer Cell Growth” (International Journal of Molecular Sciences, 2024)
